The record followed here is patent US20140363378A1, “SELF-ASSEMBLING MOLECULES THAT ACCUMULATE IN ACIDIC TUMOR MICROENVIRONMENTS” (The Ohio State University, priority 2012, published 2014).

Peptide text beside a SMILES is read from it. * marks the point of attachment. Palmitoyl = CCCCCCCCCCCCCCCC(=O)*; DO3A:Gd = Gd-chelated DO3A

A word on the pKa: it is the pH at which an ionisable group is half protonated. Higher therefore signals a weaker acid or stronger base.

What all share (type): physicochemical
A short description of data set [1]: Circular dichroism (CD) spectroscopy of pH-triggered self-assembly transition. The settings on record: for each concentration (10 μM, 500 μM). Here is the method:
The target PA concentration (10 μM) was below the detectable limit of conventional techniques to determine the morphology such as cryoTEM and small-angle X-ray scattering. Consequently, circular dichroism (CD) spectroscopy was initially used to characterize the morphology of these PAs at various pH values. PA 1 was the first molecule synthesized that underwent a self-assembly transition in the desired pH range of 6.6-7.4 at 10 μM PA concentration, in 150 mM NaCl and 2.2 mM CaCl2 (FIG. 2A) (Goldberger, J. E., et al. Angew. Chem. Int. Ed. 2011 50:6292-95). […] The transition pH from random coil to β-sheet occurred at a pH of 6.6. The transition pH was defined as the value at which the ellipticity at 205 nm rises to zero, followed by the appearance of a minimum at 218-220 nm.
Measurements were done on a Jasco-815 Circular Dichroism spectrometer using 1 cm path length quartz cuvettes. […] Double deionized Milli-Q water was used for preparing all solutions. The solutions were then heated at 80° C. for 30 minutes in a water bath and gradually cooled to room temperature. […]

Data set [2] is described as follows: Transmission electron microscopy (TEM) of self-assembled morphology. The following applies: 0.5 mM PA. Here is the method:
At a pH of 7.75, HCl was added until the pH was 6.1, and the resulting β-sheet CD spectrum was collected within three minutes. An appropriate amount of NaOH was then added to reverse the pH back to 7.70, and random coil behavior was observed again. […] Conventional transmission electron microscopy (TEM) imaging was used to determine the morphology of 10 μM of PA 1, at pH values of 6 and 8 (FIG. 6A, 6B). The TEM grids were prepared within three minutes of pH adjustment. […] This nanofiber diameter corresponds roughly to twice the molecular length based on MM+ molecular simulations, corresponding approximately to the expected diameter of cylindrical fibers consisting of hydrophobically collapsed β-sheets.
TEM images were obtained using solutions of either 10 μM or 0.5 mM peptide amphiphile concentration, as well as 150 mM NaCl and 2.2 mM CaCl2 in Milli-Q water. The solutions were first heated at 80° C. for 30 minutes in a water bath and then gradually cooled to room temperature. This was followed by pH adjustment using either HCl or NaOH. 5 μL of this solution was pipetted onto a Carbon Formvar grid (Electron Microscopy Sciences) and allowed to sit for 2 minutes before being wicked dry using filter paper. For the 10 μM experiments that were performed to determine the time dependence of nanofiber formation, solutions were dropcast onto the grid within three minutes of pH adjustment. […]

Data set [3] in a line: pH titration of peptide amphiphiles. The following applies: aqueous solution of 150 mM NaCl and 2.2 mM CaCl2, glutamic acid residues, 10 μM PA. Here is the method:
The titration measurements were conducted on 10 μM peptide amphiphile solutions prepared in 150 mM NaCl and 2.2 mM CaCl2 using milli-Q water. The solution was heated at 80° C. for 30 minutes followed by slow cooling at room temperature. The pH of the solution was then adjusted to 4 using HCl. Finally, an Accumet XL15 pH meter (Fisher Scientific) coupled with an Orion Ross Ultra semi-micro electrode (8103BNUWP, Thermo Scientific) was used to track changes in pH of the solution as NaOH solution was added in small increments. pKa values were obtained from the second inflection points of the first derivative plots of the titration data. The first transition corresponds to neutralization of excess HCl. The calculated pKas reflect the average pKa for all four glutamic acids.

“Palmitoyl-VAAAEEEEK(DO3A:Gd)-NH2 (also: Gd complex of DO3A) [PA 6]”: the “nanofiber to micelle transition pH, lower than PA 5 by” value in data set [1] turned out to be 0.4 units. The molecule “Palmitoyl-IAAAEEEEK(DO3A:Gd)-NH2 (also: Gd complex of DO3A) [PA 5]” gave a diameter of nanofibers in data set [2] (pH 4) of 11.9±1.6 nm. Besides, the “diameter of spherical micelles” value in data set [2] (pH 10) worked out at 10.0±1.2 nm. In data set [3], `CCCCCCCCCCCCCCCC(=O)N[C@H](C(=O)N[C@@H](C)C(=O)N[C@@H](C)C(=O)N[C@@H](C)C(=O)N[C@@H](CCC(=O)O)C(=O)N[C@@H](CCC(=O)O)C(=O)N[C@@H](CCC(=O)O)C(=O)N[C@@H](CCC(=O)O)C(N)=O)C(C)C` [PA 3] (Palmitoyl-VAAAEEEE-NH2) came in with a pKa of 4.86 ± 0.11.

In the case of `CCCCCCCCCCCCCCCC(=O)N[C@@H](Cc1ccc(O)cc1)C(=O)N[C@@H](C)C(=O)N[C@@H](C)C(=O)N[C@@H](C)C(=O)N[C@@H](CCC(=O)O)C(=O)N[C@@H](CCC(=O)O)C(=O)N[C@@H](CCC(=O)O)C(=O)N[C@@H](CCC(=O)O)C(N)=O` [PA 4] (Palmitoyl-YAAAEEEE-NH2), the pKa in data set [3] worked out at 4.7 ± 0.1. The pKa values of the last two molecules are within 0.2 log units of each other. In data set [3], `CCCCCCCCCCCCCCCC(=O)N[C@H](C(=O)N[C@@H](C)C(=O)N[C@@H](C)C(=O)N[C@@H](C)C(=O)N[C@@H](CCC(=O)O)C(=O)N[C@@H](CCC(=O)O)C(=O)N[C@@H](CCC(=O)O)C(=O)N[C@@H](CCC(=O)O)C(N)=O)[C@@H](C)CC` [PA 1] (Palmitoyl-IAAAEEEE-NH2) had a pKa of 4.66 ± 0.1. `CCCCCCCCCCCCCCCC(=O)N[C@@H](Cc1ccccc1)C(=O)N[C@@H](C)C(=O)N[C@@H](C)C(=O)N[C@@H](C)C(=O)N[C@@H](CCC(=O)O)C(=O)N[C@@H](CCC(=O)O)C(=O)N[C@@H](CCC(=O)O)C(=O)N[C@@H](CCC(=O)O)C(N)=O` [PA 2] (Palmitoyl-FAAAEEEE-NH2) displayed a pKa in data set [3] of 4.94 ± 0.09.
